ChEMBL document CHEMBL5715945 (Cancer Biol Ther, 2010)
Activity calls are given as the source filed them. The rule behind the calls is not given here.

Tests used:
4T1 [1] = experiment: Inhibition of cell adhesion to fibronectin in mouse 4T1 cells at 0.4 uM incubated for 4 hrs by […]; assay type: functional, cell-based
[2] = molecular target: Focal adhesion kinase 1 (Mus musculus) (UniProt P34152); experiment: Inhibition of FAK phosphorylation at Tyr397 residue in mouse 4T1 cells harbouring mCherry red fluorescent protein at 0.1 to 1 uM incubated for 1 hr by immunoblotting analysis; assay type: cell-based; settings: dose 0.1-1 µM
4T1 [3] = experiment: Inhibition of Src phosphorylation at Tyr416 residue in mouse 4T1 cells harbouring mCherry red fluorescent protein incubated for 1 hr by immunoblotting analysis; assay type: cell-based; settings: dose 0.1-1 µM

Sequence of Focal adhesion kinase 1 (Mus musculus) (P34152 whole entry): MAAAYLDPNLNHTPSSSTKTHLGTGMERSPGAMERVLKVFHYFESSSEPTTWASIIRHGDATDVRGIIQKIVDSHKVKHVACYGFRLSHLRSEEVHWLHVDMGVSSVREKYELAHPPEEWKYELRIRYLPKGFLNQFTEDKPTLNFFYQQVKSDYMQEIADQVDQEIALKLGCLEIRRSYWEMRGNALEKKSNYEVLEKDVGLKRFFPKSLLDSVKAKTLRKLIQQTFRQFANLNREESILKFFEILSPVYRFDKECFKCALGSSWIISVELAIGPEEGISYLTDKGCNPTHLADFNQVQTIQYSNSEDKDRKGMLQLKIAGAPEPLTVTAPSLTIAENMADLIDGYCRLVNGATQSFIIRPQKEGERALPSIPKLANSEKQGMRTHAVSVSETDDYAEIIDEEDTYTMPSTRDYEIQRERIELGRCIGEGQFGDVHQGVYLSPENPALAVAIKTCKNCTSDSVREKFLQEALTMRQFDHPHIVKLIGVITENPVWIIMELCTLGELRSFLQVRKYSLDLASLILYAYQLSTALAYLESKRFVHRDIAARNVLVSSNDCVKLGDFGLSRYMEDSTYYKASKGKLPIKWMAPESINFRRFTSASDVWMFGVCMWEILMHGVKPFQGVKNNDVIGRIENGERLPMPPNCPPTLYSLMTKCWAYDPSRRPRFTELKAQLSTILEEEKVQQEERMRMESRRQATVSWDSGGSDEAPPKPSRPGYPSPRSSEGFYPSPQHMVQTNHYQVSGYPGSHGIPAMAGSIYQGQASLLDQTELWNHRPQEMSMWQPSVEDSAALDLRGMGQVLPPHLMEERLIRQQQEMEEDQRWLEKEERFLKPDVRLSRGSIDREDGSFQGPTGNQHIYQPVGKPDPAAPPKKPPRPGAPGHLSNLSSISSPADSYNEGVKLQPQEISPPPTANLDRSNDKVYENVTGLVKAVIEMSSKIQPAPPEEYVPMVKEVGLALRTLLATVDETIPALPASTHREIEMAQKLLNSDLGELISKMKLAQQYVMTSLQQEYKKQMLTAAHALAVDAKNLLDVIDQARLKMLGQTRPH

## Cc1nc(Nc2ncc(C(=O)Nc3c(C)cccc3Cl)s2)cc(N2CCN(CCO)CC2)n1
4T1 [1]
  inhibition: inactive
[2]
  inhibition: inactive
4T1 [3]
  inhibition: Dose-Dependent Effect
